Like-named read-outs stand apart in the source and are kept apart here.
How the values were obtained:
FGFR1 = biological target: T1, FGFR1 (Homo sapiens, UniProt P11362); assay: PanQinase kinase panel: FGFR1; assay type: biochemical; settings: read-out: INHIBITORY EFFECT @ 1 uM: FGFR1
T1 construct: purchased Reaction Biology Europe GmbH
Experimental: (§1) Screening procedures were performed in accordance with the company's on-line protocol [accessed on-line Mar.
(§2) For each kinase, the median value of the cpm of three wells was defined as “low control” (n=3). This value reflects unspecific binding of radioactivity to the plate in the absence of a protein kinase but in the presence of the substrate. Additionally, for each kinase the median value of the cpm of three other wells was taken as the “high control,” i.e. full activity in the absence of any inhibitor (n=3). The difference between high and low control of each enzyme was taken as 100% activity.
(§3) As part of the data evaluation the low control of each kinase was subtracted from the high control value as well as from their corresponding “compound values”. The residual activity (in %) for each compound well was calculated by using the following formula: Res. Activity (%)=100×[(signal of compound−low control)/(high control−low control)].

HCK = biological target: T2, HCK (Homo sapiens, UniProt P08631); assay: PanQinase kinase panel: HCK; assay type: biochemical; settings: read-out: INHIBITORY EFFECT @ 1 uM: HCK
T2 construct: purchased Reaction Biology Europe GmbH
Experimental: as §1, §2, §3

AuroraA = biological target: T3, AuroraA (Homo sapiens, UniProt O14965); assay: PanQinase kinase panel: AuroraA; assay type: biochemical
T3 construct: purchased Reaction Biology Europe GmbH
T3 sequence (O14965 1-403): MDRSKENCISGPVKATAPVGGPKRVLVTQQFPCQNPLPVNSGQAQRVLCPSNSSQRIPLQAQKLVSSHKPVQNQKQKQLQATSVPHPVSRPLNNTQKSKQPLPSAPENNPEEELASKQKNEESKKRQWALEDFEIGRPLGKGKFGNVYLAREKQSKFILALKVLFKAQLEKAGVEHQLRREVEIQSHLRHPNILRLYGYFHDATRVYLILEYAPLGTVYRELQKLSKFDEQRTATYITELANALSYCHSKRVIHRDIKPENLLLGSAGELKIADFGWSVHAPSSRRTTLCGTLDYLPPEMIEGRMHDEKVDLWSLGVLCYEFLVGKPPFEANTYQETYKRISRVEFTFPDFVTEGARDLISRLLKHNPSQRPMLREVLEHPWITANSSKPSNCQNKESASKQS
Experimental: as §1, §2, §3

MEKK2 = biological target: T4, MEKK2 (Homo sapiens, UniProt Q9Y2U5); assay: PanQinase kinase panel: MEKK2; assay type: biochemical; settings: read-out: INHIBITORY EFFECT @ 1 uM: MEKK2
T4 construct: purchased Reaction Biology Europe GmbH
T4 sequence (Q9Y2U5 1-619): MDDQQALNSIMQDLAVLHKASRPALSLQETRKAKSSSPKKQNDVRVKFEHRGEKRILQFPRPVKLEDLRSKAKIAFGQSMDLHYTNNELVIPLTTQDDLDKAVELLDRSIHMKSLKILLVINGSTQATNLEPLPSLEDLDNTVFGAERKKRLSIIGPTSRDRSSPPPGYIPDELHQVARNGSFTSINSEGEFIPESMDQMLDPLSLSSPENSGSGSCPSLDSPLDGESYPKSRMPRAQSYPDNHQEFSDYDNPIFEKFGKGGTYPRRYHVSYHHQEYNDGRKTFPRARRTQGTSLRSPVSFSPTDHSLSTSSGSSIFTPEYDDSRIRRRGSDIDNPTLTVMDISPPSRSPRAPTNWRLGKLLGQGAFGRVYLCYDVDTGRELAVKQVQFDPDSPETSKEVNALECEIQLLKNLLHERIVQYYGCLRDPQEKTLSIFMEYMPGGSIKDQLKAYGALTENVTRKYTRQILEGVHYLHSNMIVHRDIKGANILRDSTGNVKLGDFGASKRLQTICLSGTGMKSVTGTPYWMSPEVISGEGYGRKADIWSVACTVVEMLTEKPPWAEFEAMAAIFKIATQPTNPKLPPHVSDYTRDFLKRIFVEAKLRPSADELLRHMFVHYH
Experimental: as §1, §2, §3

PAK2 = biological target: T5, PAK2 (Homo sapiens, UniProt Q13177); assay: PanQinase kinase panel: PAK2; assay type: biochemical; settings: read-out: INHIBITORY EFFECT @ 1 uM: PAK2
T5 construct: purchased Reaction Biology Europe GmbH
Experimental: as §1, §2, §3

CXCR4 = CXCR4 (Homo sapiens, UniProt P61073); assay: Chemokine (CXCL12-AF647) binding inhibition assay, Jurkat cells expressing CXCR4; settings: CXCL12-AF647 25 ng/ml, read-out: IC50 CXCL-12 binding Jurkat
Experimental: Jurkat cells expressing CXCR4 were washed once with assay buffer (Hanks' balanced salt solution with 20 mM HEPES buffer and 0.2% bovine serum albumin, pH 7.4) and then incubated for 15 min at room temperature with the test compounds diluted in assay buffer at dose-dependent concentrations. Subsequently, CXCL12-AF647 (25 ng/ml) was added to the compound-incubated cells. The cells were incubated for 30 min at room temperature. Thereafter, the cells were washed twice in assay buffer, fixed in 1% paraformaldehyde in PBS, and analyzed on the FL4 channel of a FACSCalibur flow cytometer equipped with a 635-nm red diode laser (Becton Dickinson, San Jose, CA, USA).
The percentages of inhibition of CXCL12-AF647 binding were calculated according to the formula: [1−((MFI−MFINC)/(MFIPC−MFINC))]×100 where MFI is the mean fluorescence intensity of the cells incubated with CXCL 12-AF647 in the presence of the inhibitor, MFINC is the mean fluorescence intensity measured in the negative control (i.e., autofluorescence of unlabeled cells), and MFIPC is the mean fluorescence intensity of the positive control (i.e., cells exposed to CXCL12-AF647 alone).

BTK = BTK (Homo sapiens, UniProt Q06187); assay: BTK Kinase Enzyme System with ADP-Glo Kinase Assay; assay type: biochemical; design: Recombinant full-length human BTK was expressed by baculovirus in Sf9 insect cells; His (N); purchased Promega V9071; host or cells: Sf9 insect cells (baculovirus); settings: 50 μM ATP
Experimental: Inhibition of BTK activity was evaluated using the BTK Kinase Enzyme System in combination with the ADP-Glo™ Kinase Assay Kit (V9071, Promega), according to manufacturer's instructions. Luminescence was detected on a PerkinElmer EnVision Multimode Plate Reader.
Recombinant full-length human BTK was expressed by baculovirus in Sf9 insect cells using an N-terminal His tag, MW ˜78 kDa. Substrate solution contained Poly (4:1 Glu, Tyr) Peptide Substrate. BTK Kinase Buffer consisted of: 40 mM Tris, pH 7.5; 20 mM MgCl2; 0.1 mg/ml BSA; 2 mM MnCl2; 50 μM DTT. ADP-Glo™ Reagents were thawed at ambient temperature; components of BTK Enzyme System, ADP and ATP were thawed on ice. Final assay conditions used 3 ng BTK, 50 μM ATP, and 0.2 mg/mL substrate. Compounds were tested at 11 dose points in duplicates, in 3-fold dilution with top concentration at 10 μM.
Assay performance was evaluated according to the reference compound Staurosporine, which was within 3-5 fold of published results and between different tests, with a Z′ value larger than 0.5, where applicable.

[1] = read-out: INHIBITORY EFFECT @ 1 uM: AuroraA
[2] = at 1 μM, read-out: inhibition of AuroraA

T2 sequence (P08631 whole entry): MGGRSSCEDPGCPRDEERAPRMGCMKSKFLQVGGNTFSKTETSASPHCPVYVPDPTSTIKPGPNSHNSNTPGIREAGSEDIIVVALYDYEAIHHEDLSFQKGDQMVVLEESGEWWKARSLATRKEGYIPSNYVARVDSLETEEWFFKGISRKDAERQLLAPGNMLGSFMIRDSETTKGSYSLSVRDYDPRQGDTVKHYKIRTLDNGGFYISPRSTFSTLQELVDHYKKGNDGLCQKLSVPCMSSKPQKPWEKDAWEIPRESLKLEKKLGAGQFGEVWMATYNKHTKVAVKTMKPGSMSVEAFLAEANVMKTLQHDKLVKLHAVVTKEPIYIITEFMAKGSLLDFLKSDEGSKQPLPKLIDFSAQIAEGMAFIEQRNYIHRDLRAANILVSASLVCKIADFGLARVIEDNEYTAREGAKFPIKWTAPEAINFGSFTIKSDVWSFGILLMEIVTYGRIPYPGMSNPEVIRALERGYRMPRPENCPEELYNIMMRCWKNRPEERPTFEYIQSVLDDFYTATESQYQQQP
Sequence of CXCR4 (P61073 whole entry): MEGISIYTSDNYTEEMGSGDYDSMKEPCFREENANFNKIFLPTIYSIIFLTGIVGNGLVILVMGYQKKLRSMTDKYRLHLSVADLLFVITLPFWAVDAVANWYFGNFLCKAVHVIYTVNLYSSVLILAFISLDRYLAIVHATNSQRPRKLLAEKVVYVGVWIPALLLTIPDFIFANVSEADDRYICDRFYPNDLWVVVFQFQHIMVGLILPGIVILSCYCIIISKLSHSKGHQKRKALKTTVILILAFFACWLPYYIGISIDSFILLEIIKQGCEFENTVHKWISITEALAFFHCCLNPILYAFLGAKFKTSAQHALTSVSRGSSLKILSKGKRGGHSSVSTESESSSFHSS
Sequence of BTK (Q06187 whole entry): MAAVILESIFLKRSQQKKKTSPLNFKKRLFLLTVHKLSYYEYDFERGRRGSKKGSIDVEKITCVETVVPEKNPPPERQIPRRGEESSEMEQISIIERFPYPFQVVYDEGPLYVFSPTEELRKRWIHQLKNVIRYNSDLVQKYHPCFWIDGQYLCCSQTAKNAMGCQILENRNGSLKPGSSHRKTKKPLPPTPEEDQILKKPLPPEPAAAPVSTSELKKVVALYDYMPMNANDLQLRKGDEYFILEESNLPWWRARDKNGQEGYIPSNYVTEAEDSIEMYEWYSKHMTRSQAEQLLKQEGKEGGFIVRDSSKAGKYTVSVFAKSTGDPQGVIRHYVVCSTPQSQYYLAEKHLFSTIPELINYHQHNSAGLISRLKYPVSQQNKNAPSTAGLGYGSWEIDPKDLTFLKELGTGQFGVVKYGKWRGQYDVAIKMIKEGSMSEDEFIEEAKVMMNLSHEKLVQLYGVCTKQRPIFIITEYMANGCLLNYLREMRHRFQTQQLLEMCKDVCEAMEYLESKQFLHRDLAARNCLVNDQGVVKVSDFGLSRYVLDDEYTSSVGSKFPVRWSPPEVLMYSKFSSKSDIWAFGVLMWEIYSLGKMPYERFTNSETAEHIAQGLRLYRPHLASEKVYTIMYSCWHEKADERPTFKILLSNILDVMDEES
T5 sequence (Q13177 whole entry): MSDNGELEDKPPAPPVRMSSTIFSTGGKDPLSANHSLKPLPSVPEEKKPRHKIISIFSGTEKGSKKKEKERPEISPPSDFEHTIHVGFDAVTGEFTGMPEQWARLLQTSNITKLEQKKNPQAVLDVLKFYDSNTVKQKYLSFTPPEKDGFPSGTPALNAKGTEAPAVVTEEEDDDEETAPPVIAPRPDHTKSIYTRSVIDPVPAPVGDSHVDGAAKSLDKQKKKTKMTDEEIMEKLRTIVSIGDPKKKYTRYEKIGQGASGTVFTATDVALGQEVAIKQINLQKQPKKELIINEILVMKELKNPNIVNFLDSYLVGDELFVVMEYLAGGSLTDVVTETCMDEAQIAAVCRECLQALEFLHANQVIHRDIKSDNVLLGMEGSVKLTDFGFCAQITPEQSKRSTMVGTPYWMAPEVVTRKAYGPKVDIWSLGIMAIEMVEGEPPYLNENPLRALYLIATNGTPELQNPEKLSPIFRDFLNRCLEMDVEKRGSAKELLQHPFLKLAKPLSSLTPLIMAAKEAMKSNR
T1 sequence (P11362 22-822): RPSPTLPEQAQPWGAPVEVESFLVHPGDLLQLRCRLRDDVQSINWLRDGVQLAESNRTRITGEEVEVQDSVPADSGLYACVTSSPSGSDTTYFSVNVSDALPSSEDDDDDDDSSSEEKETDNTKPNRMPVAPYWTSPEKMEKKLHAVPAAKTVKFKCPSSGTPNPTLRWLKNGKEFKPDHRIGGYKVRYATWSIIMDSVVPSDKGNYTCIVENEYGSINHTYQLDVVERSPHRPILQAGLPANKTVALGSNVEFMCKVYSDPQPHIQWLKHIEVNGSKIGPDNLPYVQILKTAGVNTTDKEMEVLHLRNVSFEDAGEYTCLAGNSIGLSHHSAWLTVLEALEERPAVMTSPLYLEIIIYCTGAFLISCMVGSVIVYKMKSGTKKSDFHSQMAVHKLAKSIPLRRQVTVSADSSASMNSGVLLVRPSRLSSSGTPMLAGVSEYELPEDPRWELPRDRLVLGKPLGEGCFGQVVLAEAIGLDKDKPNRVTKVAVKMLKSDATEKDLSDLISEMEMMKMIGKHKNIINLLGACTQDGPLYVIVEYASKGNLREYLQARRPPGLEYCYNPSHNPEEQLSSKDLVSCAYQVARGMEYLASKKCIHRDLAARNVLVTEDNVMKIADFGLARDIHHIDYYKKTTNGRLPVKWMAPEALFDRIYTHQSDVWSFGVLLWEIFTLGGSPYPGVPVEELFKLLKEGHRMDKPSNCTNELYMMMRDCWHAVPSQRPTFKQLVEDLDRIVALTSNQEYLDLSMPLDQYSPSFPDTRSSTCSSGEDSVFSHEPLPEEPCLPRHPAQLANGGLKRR

Row | IC50 (CXCR4) [nM] | IC50 (BTK) [nM] | SMILES | inhibition at 1 µM (FGFR1) [%] | inhibition at 1 µM (HCK) [%] | inhibition at 1 µM (AuroraA; [1]) [%] | inhibition at 1 µM (MEKK2) [%] | inhibition at 1 µM (PAK2) [%] | inhibition at 1 µM (AuroraA; [2]) [%]
1 |  |  | COc1ccc(F)cc1C(=O)NCc1ccc(-c2nn([C@@H](C)C(F)(F)F)c(N)c2C(N)=O)cc1 [LOXO-305, pirtobrutinib] | < 50 | < 50 | < 50 | < 50 | < 50 | 
2 | 1 to 100 | 1 to 100 | Cc1cc(-c2ccnc(Nc3cnn(CCN4[C@@H](c5ncccc5C)CCC[C@H]4c4ncccc4C)c3)n2)ccc1CNC(=O)N1CC(OC(C)C)C1 [Compound I-11] |  |  |  |  |  | 
3 | 1 to 100 | 1 to 100 | Cc1cccnc1[C@H]1CCC[C@@H](c2ncccc2C)N1CCCCNC(=O)[C@@H]1CC[C@@H](Nc2ncnc3[nH]cc(C(=O)c4ccc(Oc5ccccc5)cc4Cl)c23)CO1 [Compound I-16] |  |  |  |  |  | 
4 |  |  | C=CC(=O)N1CCC([C@@H]2CCNc3c(C(N)=O)c(-c4ccc(Oc5ccccc5)cc4)nn32)CC1 [Zanubrutinib, (7S)-2-(4-phenoxyphenyl)-7-(1-prop-2-enoylpiperidin-4-yl)-4,5,6,7-tetrahydropyrazolo[1,5-a]pyrimidine-3-carboxamide] | < 50 |  | < 50 | < 50 | < 50 | 
5 | 100 to 1000 | 1 to 100 | Cc1cccnc1[C@H]1CCC[C@@H](c2ncccc2C)N1CCCCNC(=O)OC[C@@H]1CC[C@@H](Nc2ncnc3[nH]cc(C(=O)c4ccc(Oc5ccccc5)cc4Cl)c23)CO1 [Compound I-18] |  |  |  |  |  | 
6 |  |  | O=C(c1ccc(Oc2ccccc2)cc1Cl)c1c[nH]c2ncnc(N[C@@H]3CC[C@@H](CO)OC3)c12 [ARQ-531, (2-chloro-4-phenoxyphenyl) (4-(((3R,6S)-6-(hydroxymethyl)tetrahydro-2H-pyran-3-yl)amino)-7H-pyrrolo[2,3-d]pyrimidin-5-yl) methanone] | 50 to 69 | 70 to 89 | 50 to 69 | 70 to 89 | 70 to 89 | ≥ 50

Row | SMILES | IC50 (CXCR4) [nM] | IC50 (BTK) [nM] | inhibition at 1 µM (FGFR1) [%] | inhibition at 1 µM (HCK) [%] | inhibition at 1 µM (AuroraA; [1]) [%] | inhibition at 1 µM (MEKK2) [%] | inhibition at 1 µM (PAK2) [%] | inhibition at 1 µM (AuroraA; [2]) [%]
7 | Cc1cccnc1[C@H]1CCC[C@@H](c2ncccc2C)N1CCN1CCN(C(=O)c2ccc(-c3cc4c(-c5cccc(NC(=O)c6ccccc6)c5C)ncnc4[nH]3)cc2)CC1 [Compound I-10, N-(3-(6-(4-(4-(2-((2R,6S)-2,6-bis(3-methylpyridin-2-yl)piperidin-1-yl)ethyl)piperazine-1-carbonyl)phenyl)-7H-pyrrolo[2,3-d]pyrimidin-4-yl)-2-methylphenyl)benzamide] | 1 to 100 | 1 to 100 | < 50 | < 50 | 50 to 69 | < 50 | < 50 | 50 to 89

Source: US20250326753A1, “DUAL CXCR4-BTK INHIBITORS” (X4 Pharmaceuticals, Inc., priority 2022, published 2025)
